Assay results: patent US10072001B2, “Tank-binding kinase inhibitor compounds” (Gilead Sciences, Inc., priority 2014, dated 2018)

What was measured:
[1] = target: TBK1 (Homo sapiens (Human), UniProt Q9UHD2); assay: TR-FRET kinase assay, TBK1; conditions: read-out: TBK1-IC50; full length recombinant TBK1 2.5 nM, 2x Km ATP, 1 μM peptide, 240 min at 25° C.; geometric mean of minimum four determinations
Sequence of TBK1 (Q9UHD2 whole entry): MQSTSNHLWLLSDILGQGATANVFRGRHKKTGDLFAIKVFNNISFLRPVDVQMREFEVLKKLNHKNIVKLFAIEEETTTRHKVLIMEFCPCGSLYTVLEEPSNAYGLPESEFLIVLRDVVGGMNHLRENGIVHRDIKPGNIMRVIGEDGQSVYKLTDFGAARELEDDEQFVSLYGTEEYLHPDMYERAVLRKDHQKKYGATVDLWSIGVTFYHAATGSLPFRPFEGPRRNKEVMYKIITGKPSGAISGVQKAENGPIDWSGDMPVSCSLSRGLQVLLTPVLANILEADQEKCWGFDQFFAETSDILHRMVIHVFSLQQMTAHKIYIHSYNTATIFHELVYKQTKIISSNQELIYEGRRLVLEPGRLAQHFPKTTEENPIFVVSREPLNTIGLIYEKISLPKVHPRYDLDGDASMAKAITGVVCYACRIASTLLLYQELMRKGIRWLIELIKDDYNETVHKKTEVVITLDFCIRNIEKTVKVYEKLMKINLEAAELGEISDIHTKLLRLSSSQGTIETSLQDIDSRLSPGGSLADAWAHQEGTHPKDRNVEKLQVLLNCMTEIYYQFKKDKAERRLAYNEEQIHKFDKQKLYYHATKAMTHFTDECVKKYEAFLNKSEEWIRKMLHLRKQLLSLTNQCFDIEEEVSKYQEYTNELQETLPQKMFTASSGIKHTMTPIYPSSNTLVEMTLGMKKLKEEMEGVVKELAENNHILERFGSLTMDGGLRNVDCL

[2] = target: IKKε (Homo sapiens (Human), UniProt Q14164); assay: TR-FRET kinase assay, IKKε; format: biochemical; conditions: full length recombinant IKKε 0.3 nM, 2x Km ATP, 1 μM peptide, 240 min at 25° C.; geometric mean of minimum four determinations
Sequence of IKKε (Q14164 whole entry): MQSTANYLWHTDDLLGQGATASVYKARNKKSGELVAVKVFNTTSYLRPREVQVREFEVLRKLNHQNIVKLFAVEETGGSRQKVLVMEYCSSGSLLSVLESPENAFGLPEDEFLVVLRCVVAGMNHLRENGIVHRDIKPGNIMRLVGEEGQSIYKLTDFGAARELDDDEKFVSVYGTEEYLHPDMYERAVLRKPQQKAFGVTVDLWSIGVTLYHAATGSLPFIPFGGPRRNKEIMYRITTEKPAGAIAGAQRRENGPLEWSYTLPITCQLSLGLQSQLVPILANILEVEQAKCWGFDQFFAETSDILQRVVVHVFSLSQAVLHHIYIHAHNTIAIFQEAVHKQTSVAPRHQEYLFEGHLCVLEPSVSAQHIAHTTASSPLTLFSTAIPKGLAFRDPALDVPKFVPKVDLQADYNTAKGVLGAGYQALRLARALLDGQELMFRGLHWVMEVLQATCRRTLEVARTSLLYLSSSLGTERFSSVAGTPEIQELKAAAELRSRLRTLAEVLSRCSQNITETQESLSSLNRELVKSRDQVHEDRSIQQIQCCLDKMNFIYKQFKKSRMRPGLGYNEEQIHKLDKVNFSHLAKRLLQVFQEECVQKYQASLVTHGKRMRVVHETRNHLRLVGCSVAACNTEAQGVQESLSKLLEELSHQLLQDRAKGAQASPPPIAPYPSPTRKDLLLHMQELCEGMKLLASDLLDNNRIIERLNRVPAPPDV
From the text: Biological Assay for TBK1 and IKKs:

SMILES	IC50 [1]	IC50 [2]
N#Cc1cc(-c2ccnc3[nH]c(-c4cc5ccccc5[nH]4)cc23)ccc1OC1CCOCC1 [Example 38]	32.5 nM	76.8 nM
CS(=O)(=O)N1CCC(Oc2ccc(-c3ncnc4[nH]c(-c5ccc(N6CCOCC6)cc5)nc34)cc2C#N)CC1 [Example 253, 2-((1-(methylsulfonyl)piperidin-4-yl)oxy)-5-(8-(4-morpholinophenyl)-9H-purin-6-yl)benzonitrile]	19.8 nM	39.8 nM
CN(C)Cc1ccc(-c2nc3c(-c4ccc(OC5CCN(C(=O)C(F)F)CC5)c(C#N)c4)ncnc3[nH]2)cc1 [Example 267, 2-((1-(2,2-difluoroacetyl)piperidin-4-yl)oxy)-5-(8-(4-((dimethylamino)methyl)phenyl)-9H-purin-6-yl)benzonitrile]	1000 nM	1000 nM
N#Cc1cc(-c2ncnc3[nH]c(-c4ccc(N5CCOCC5)cc4)nc23)ccc1OC1CCNCC1 [Example 204, 5-(8-(4-morpholinophenyl)-9H-purin-6-yl)-2-(piperidin-4-yloxy)benzonitrile]	36.8 nM	83.7 nM
N#Cc1cc(-c2ncnc3[nH]c(-c4ccc(N5CCOCC5)cc4)cc23)ccc1CN1CCCC1=O [Example 115, 5-(6-(4-morpholinophenyl)-7H-pyrrolo[2,3-d]pyrimidin-4-yl)-2-((2-oxopyrrolidin-1-yl)methyl)benzonitrile]	45.7 nM	1000 nM
CC(C)(C)OC(=O)n1ccc2cc(-c3cc4c(-c5ccc(OC6CCOCC6)c(C#N)c5)ccnc4[nH]3)ccc21 [Example 44, tert-butyl 5-(4-(3-cyano-4-((tetrahydro-2H-pyran-4-yl)oxy)phenyl)-1H-pyrrolo[2,3-b]pyridin-2-yl)-1H-indole-1-carboxylate]	> 1000 nM	> 1000 nM
N#Cc1cc(-c2ncnc3[nH]c(-c4ccc(N5CCOCC5)cc4)nc23)ccc1OC1CCOCC1 [Example 201, 5-(8-(4-morpholinophenyl)-9H-purin-6-yl)-2-((tetrahydro-2H-pyran-4-yl)oxy)benzonitrile]	3 nM	19.7 nM
N#Cc1cc(-c2ncnc3[nH]c(-c4ccc(N5CCOCC5)cc4)cc23)ccc1OCC1CC1 [Example 102, 2-(cyclopropylmethoxy)-5-(6-(4-morpholinophenyl)-7H-pyrrolo[2,3-d]pyrimidin-4-yl)benzonitrile]	> 1000 nM	> 1000 nM

Continued by falling IC50 [1], values first:

IC50 [1]	IC50 [2]	SMILES
17.1 nM	33.2 nM	N#Cc1cc(-c2ccnc3[nH]c(-c4ccc(N5CCOCC5)cc4)cc23)ccc1OC1CCNCC1 [Example 18, 5-(2-(4-morpholinophenyl)-1H-pyrrolo[2,3-b]pyridin-4-yl)-2-(piperidin-4-yloxy)benzonitrile]
5.76 nM	> 1000 nM	CC1(C)C(=O)Nc2cc(-c3cc4c(-c5ccc(OC6CCOCC6)c(C#N)c5)ccnc4[nH]3)ccc21 [Example 76, 5-(2-(3,3-dimethyl-2-oxoindolin-6-yl)-1H-pyrrolo[2,3-b]pyridin-4-yl)-2-((tetrahydro-2H-pyran-4-yl)oxy)benzonitrile]
4.71 nM	23.4 nM	COc1ccc(-c2nc3c(-c4ccc(OC5CCOCC5)c(C#N)c4)ncnc3[nH]2)cc1 [Example 146, 5-(8-(4-methoxyphenyl)-9H-purin-6-yl)-2-((tetrahydro-2H-pyran-4-yl)oxy)benzonitrile]
4.49 nM	15.5 nM	N#Cc1cc(-c2ncnc3[nH]c(-c4ccc(N5CCN(C6COC6)CC5)cc4)nc23)ccc1OC1CCOCC1 [Example 232, 5-(8-(4-(4-(oxetan-3-yl)piperazin-1-yl)phenyl)-9H-purin-6-yl)-2-((tetrahydro-2H-pyran-4-yl)oxy)benzonitrile]
4.21 nM	13.6 nM	N#Cc1cc(-c2ncnc3[nH]c(-c4ccc(OC(F)(F)F)cc4)cc23)ccc1OC1CCN(C(=O)CO)CC1 [Example 128, 2-((1-(2-hydroxyacetyl)piperidin-4-yl)oxy)-5-(6-(4-(trifluoromethoxy)phenyl)-7H-pyrrolo[2,3-d]pyrimidin-4-yl)benzonitrile]
3.54 nM	2.98 nM	N#Cc1cc(-c2ccnc3[nH]c(-c4cnn(C5CCOCC5)c4)cc23)ccc1OC1CCOCC1 [Example 51, 5-(2-(1-(tetrahydro-2H-pyran-4-yl)-1H-pyrazol-4-yl)-1H-pyrrolo[2,3-b]pyridin-4-yl)-2-((tetrahydro-2H-pyran-4-yl)oxy)benzonitrile]
2.08 nM	4.22 nM	N#Cc1cc(-c2ncnc3[nH]c(-c4ccc(N5CCOCC5)cc4)nc23)ccc1OC1CCN(S(N)(=O)=O)CC1 [Example 262, 4-(2-cyano-4-(8-(4-morpholinophenyl)-9H-purin-6-yl)phenoxy)piperidine-1-sulfonamide]
1.31 nM	3.5 nM	N#Cc1cc(-c2ccnc3[nH]c(-c4ccc(N5CCN(C6COC6)CC5)cc4)cc23)ccc1OC1CCOCC1 [Example 85, 5-(2-(4-(4-(oxetan-3-yl)piperazin-1-yl)phenyl)-1H-pyrrolo[2,3-b]pyridin-4-yl)-2-((tetrahydro-2H-pyran-4-yl)oxy)benzonitrile]
1.01 nM	0.851 nM	N#Cc1cc(-c2ncnc3[nH]c(-c4ccc(OCCN5CCCC5)cc4)cc23)ccc1OC1CCN(C(=O)CO)CC1 [Example 229, 2-((1-(2-hydroxyacetyl)piperidin-4-yl)oxy)-5-(6-(4-(2-(pyrrolidin-1-yl)ethoxy)phenyl)-7H-pyrrolo[2,3-d]pyrimidin-4-yl)benzonitrile]
0.503 nM	1.48 nM	N#Cc1cc(-c2ncnc3[nH]c(-c4ccc(N5CCOCC5)cc4)cc23)ccc1OC1CCN(C(=O)CO)CC1 [Example 220, 2-((1-(2-hydroxyacetyl)piperidin-4-yl)oxy)-5-(6-(4-morpholinophenyl)-7H-pyrrolo[2,3-d]pyrimidin-4-yl)benzonitrile]
